The NIST ThermoML archive (doi:10.1021/acs.jced.7b00904)

Test: refractive index (Na D-line) (dimensionless); wn = mass fraction of the nth substance listed
Conditions: 101.3 kPa, Liquid, Standard Abbe refractometry

N#C[S-].[K+] [potassium thiocyanate] + O
refractive index
Conditions	293 K	298 K	303 K	308 K	313 K
w1 = 0.218	1.3754	1.37475	1.37415	1.3731	1.3728
w1 = 0.244	1.38075	1.3802	1.3796	1.37855	1.3779
w1 = 0.265	1.38565	1.3852	1.3844	1.383	1.38205
w1 = 0.291	1.39085	1.3906	1.3896	1.38835	1.3876
w1 = 0.321	1.39825	1.39675	1.396	1.3949	1.39375
w1 = 0.359	1.4061	1.4054	1.4046	1.4033	1.40235
w1 = 0.381	1.41155	1.4105	1.4097	1.4079	1.40725
w1 = 0.406	1.41705	1.41615	1.4147	1.4139	1.41305
w1 = 0.42	1.41995	1.41945	1.4183	1.41675	1.41585
w1 = 0.435	1.42345	1.423	1.422	1.4199	1.41875
w1 = 0.451	1.42755	1.42705	1.42585	1.4241	1.4229
w1 = 0.468	1.43175	1.43085	1.4295	1.4281	1.4272
w1 = 0.477	1.43375	1.433	1.4319	1.43035	1.4294
w1 = 0.487	1.4358	1.4352	1.4344	1.43245	1.4315
w1 = 0.497	1.43825	1.43755	1.43665	1.4347	1.43375
w1 = 0.507	1.441	1.44045	1.43855	1.43715	1.4362
w1 = 0.518	1.4437	1.443	1.44095	1.4393	1.4385
w1 = 0.529	1.4465	1.44635	1.44455	1.4423	1.44175
w1 = 0.54	1.4493	1.44905	1.44675	1.4451	1.44415
w1 = 0.553	1.4521	1.45205	1.4499	1.4473	1.44725
w1 = 0.565	1.45545	1.45505	1.4534	1.45115	1.45065
w1 = 0.579	1.45915	1.4587	1.4569	1.45455	1.4536
w1 = 0.584	1.46045	1.46015	1.4584	1.4559	1.4554
w1 = 0.59	1.46215	1.4614	1.4599	1.4579	1.45645
w1 = 0.595	1.4635	1.46305	1.46155	1.4595	1.4587
w1 = 0.601	1.46515	1.46505	1.4633	1.46085	1.4596
w1 = 0.607	1.4672	1.46635	1.465	1.46265	1.462
w1 = 0.613	1.4681	1.46775	1.4663	1.46415	1.46305
w1 = 0.62	1.4694	1.4693	1.4682	1.46645	1.46495
w1 = 0.626	1.47155	1.47145	1.46985	1.46845	1.46715
w1 = 0.632	1.4733	1.47285	1.4721	1.4698	1.4689
w1 = 0.639	1.47505	1.4747	1.47385	1.47195	1.4704
w1 = 0.646	1.4771	1.47675	1.4757	1.47355	1.4724
w1 = 0.652	1.478	1.47805	1.4773	1.4761	1.4745
w1 = 0.659	1.4809	1.4805	1.4795	1.4784	1.47655
w1 = 0.667	1.48275	1.4826	1.4813	1.48045	1.47875
w1 = 0.674	1.48485	1.4846	1.4835	1.48215	1.48105
w1 = 0.681	1.4875	1.48685	1.48595	1.48455	1.483
w1 = 0.689	1.4891	1.4885	1.4876	1.4865	1.4855
w1 = 0.697	1.49135	1.4907	1.4896	1.4884	1.4871
w1 = 0.705	1.49315	1.4922	1.49135	1.49005	1.48924
